Assay results as given in the NIST ThermoML archive (doi:10.1021/je1003065).

Test: mn = molality of the nth substance listed, in mol/kg
Conditions: Liquid, Vibrating tube method

[Br-].[Li+] [lithium bromide] + CCO
Conditions | mass density [kg/m3]
373.14 K, 2757 kPa, m1 = 0.5972 | 759.44
373.14 K, 10024 kPa, m1 = 0.2335 | 743.18
373.14 K, 10201 kPa, m1 = 0.5972 | 767.99
373.14 K, 29963 kPa, m1 = 3.368 | 944.93
373.14 K, 29993 kPa, m1 = 0.5972 | 788.87
373.14 K, 39934 kPa, m1 = 3.368 | 952.72
373.14 K, 49924 kPa, m1 = 3.368 | 960.01
373.14 K, 60080 kPa, m1 = 3.368 | 966.95
373.14 K, 69925 kPa, m1 = 3.368 | 973.28
373.14 K, 79738 kPa, m1 = 0.5972 | 829.02
373.14 K, 80004 kPa, m1 = 0.2335 | 806.27
373.14 K, 80063 kPa, m1 = 3.368 | 979.45
373.14 K, 89993 kPa, m1 = 3.368 | 985.2
373.14 K, 89994 kPa, m1 = 2.272 | 930.92
373.14 K, 99876 kPa, m1 = 3.368 | 990.71
373.15 K, 1026 kPa, m1 = 0.9499 | 780.35
373.15 K, 1235 kPa, m1 = 0.2335 | 732.64
373.15 K, 1415 kPa, m1 = 2.833 | 892.25
373.15 K, 5002 kPa, m1 = 2.833 | 895.82
373.15 K, 5004 kPa, m1 = 0.2335 | 737.23
373.15 K, 5019 kPa, m1 = 1.462 | 817.48
373.15 K, 5412 kPa, m1 = 0.9499 | 785.62
373.15 K, 10004 kPa, m1 = 2.833 | 900.66
373.15 K, 10068 kPa, m1 = 0.9499 | 790.99
373.15 K, 19935 kPa, m1 = 0.9499 | 801.67
373.15 K, 19957 kPa, m1 = 2.833 | 909.82
373.15 K, 19985 kPa, m1 = 0.2335 | 754.93
373.15 K, 29956 kPa, m1 = 2.833 | 918.4
373.15 K, 29974 kPa, m1 = 0.9499 | 811.66
373.15 K, 39236 kPa, m1 = 0.9499 | 820.14
373.15 K, 39984 kPa, m1 = 2.833 | 926.44
373.15 K, 40001 kPa, m1 = 0.2335 | 774.75
373.15 K, 49979 kPa, m1 = 2.272 | 904.77
373.15 K, 50002 kPa, m1 = 2.833 | 933.93
373.15 K, 50023 kPa, m1 = 0.9499 | 829.23
373.15 K, 59924 kPa, m1 = 2.833 | 940.87
373.15 K, 59926 kPa, m1 = 0.9499 | 836.92
373.15 K, 59977 kPa, m1 = 1.462 | 867.61
373.15 K, 59987 kPa, m1 = 0.2335 | 791.31
373.15 K, 69784 kPa, m1 = 2.833 | 947.33
373.15 K, 69895 kPa, m1 = 0.9499 | 844.11
373.15 K, 69979 kPa, m1 = 1.462 | 874.66
373.15 K, 69994 kPa, m1 = 0.5972 | 822.13
373.15 K, 79936 kPa, m1 = 0.9499 | 850.88
373.15 K, 80021 kPa, m1 = 2.833 | 953.61
373.15 K, 89926 kPa, m1 = 2.833 | 959.33
373.15 K, 89934 kPa, m1 = 0.5972 | 835.63
373.15 K, 89945 kPa, m1 = 0.9499 | 857.23
373.15 K, 89956 kPa, m1 = 0.2335 | 812.23
373.15 K, 99845 kPa, m1 = 2.833 | 964.74
373.15 K, 99866 kPa, m1 = 0.5972 | 840.98
373.15 K, 99874 kPa, m1 = 0.2335 | 817.91
373.15 K, 99968 kPa, m1 = 0.9499 | 863.3
